Values of other authors in patent publication US11938211B2, “Process for coloring keratinous material comprising the use of an organosilicon compound, an effect pigment, a further coloring compound and a film-forming polymer I” (Henkel AG & Co. KGaA, priority 2019, dated 2024).

Conditions: 25° C.

Row | SMILES | solubility in water (in words) | solubility in water
1 | O=C([O-])C1=NN(c2ccc(S(=O)(=O)[O-])cc2)C(=O)C1N=Nc1ccc(S(=O)(=O)[O-])cc1.[Na+].[Na+].[Na+] (centres unmarked) [Acid Yellow 23, trisodium salt of 4,5-dihydro-5-oxo-1-(4-sulfophenyl)-4-((4-sulfophenyl)azo)-1H-pyrazole-3-carboxylic acid] | highly soluble | 
2 | O=C([O-])c1c(Cl)c(Cl)c(Cl)c(Cl)c1-c1c2c(Br)cc(=O)c(Br)c-2oc2c(Br)c(O)cc(Br)c12.O=C([O-])c1c(Cl)c(Cl)c(Cl)c(Cl)c1-c1c2c(Br)cc(=O)c(Br)c-2oc2c(Br)c(O)cc(Br)c12.[Na+].[Na+] [Acid Red 92, disodium salt of 3,4,5,6-tetrachloro-2-(1,4,5,8-tetrabromo-6-hydroxy-3-oxoxanthen-9-yl)benzoic acid] |  | greater than 10 g/L
3 | CCN(Cc1cccc(S(=O)(=O)[O-])c1)c1ccc(C(=C2C=CC(=[N+](CC)Cc3cccc(S(=O)(=O)[O-])c3)C=C2)c2ccccc2S(=O)(=O)[O-])cc1.[Na+].[Na+] [Acid Blue 9] |  | more than 20 % by weight
4 | Nc1cc(S(=O)(=O)[O-])cc2cc(S(=O)(=O)[O-])c(N=Nc3ccccc3)c(O)c12.[Na+].[Na+] [Acid Red 33, disodium salt of 5-amino-4-hydroxy-3-(phenylazo)-naphthalene-2,7-disulphonate] |  | 2500 µg/mL
5 | O=S(=O)([O-])c1ccc(N=Nc2c(O)ccc3ccccc23)cc1.[Na+] [Acid Orange 7, sodium salt of 4-[(2-hydroxy-1-naphthyl)azo]benzene sulphonate] |  | more than 7 g/L
